Data from the supplement of paper PMC11061612.

Tests used:
Assay in all cases: combination Emax (second highest fraction inhibited in the dose matrix, 72 h); higher = more inhibition; extreme values may be limits of the assay
[1] = tested on: CCRF-CEM (T-Lymphoblastic Leukemia)
How it was run: (§1)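 After 24 hours at 37°C and 5% CO2 in 1536-well plates, cells in DMEM/F12 or RPMI plus 10% FBS received two-drug dose matrices for 72 hours. Viability came from CellTiter-Glo 2.0 luminescence and was scaled as inhibition, anchored at 0 by vehicle wells and at 1 by blank wells. Combination Emax is taken as the second-highest inhibition in the matrix, and Bliss excess as the observed combination effect less EA + EB − EA·EB, with EA and EB the single-agent effects.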

[2] = tested on: LU-135 (Small Cell Lung Carcinoma)
How it was run: as §1

[3] = tested on: TE-15 (Esophageal Squamous Cell Carcinoma)
How it was run: as §1

[4] = tested on: MFE-296 (Endometrial Carcinoma)
How it was run: as §1

[5] = tested on: Daoy (Other Solid Carcinomas)
How it was run: as §1

[6] = tested on: TE-9 (Esophageal Squamous Cell Carcinoma)
How it was run: as §1

[7] = tested on: ES4 (Ewing's Sarcoma)
How it was run: as §1

[8] = tested on: KELLY (Neuroblastoma)
How it was run: as §1

[9] = tested on: NCI-H2085 (Non-Small Cell Lung Carcinoma)
How it was run: as §1

[10] = tested on: LNCaP-Clone-FGC (Prostate Carcinoma)
How it was run: as §1

[11] = tested on: Calu-3 (Lung Adenocarcinoma)
How it was run: as §1

[12] = tested on: DEL (T-Cell Non-Hodgkin's Lymphoma)
How it was run: as §1

[13] = tested on: ME-1 (Acute Myeloid Leukemia)
How it was run: as §1

[14] = tested on: HOS (Osteosarcoma)
How it was run: as §1

[15] = tested on: HuP-T4 (Pancreatic Carcinoma)
How it was run: as §1

[16] = tested on: TCCSUP (Bladder Carcinoma)
How it was run: as §1

[17] = tested on: RC-K8 (B-Cell Non-Hodgkin's Lymphoma)
How it was run: as §1

[18] = tested on: OVCA420 (Ovarian Carcinoma)
How it was run: as §1

[19] = tested on: CaR-1 (Colorectal Carcinoma)
How it was run: as §1

[20] = tested on: KYSE-520 (Esophageal Squamous Cell Carcinoma)
How it was run: as §1

Structure (SMILES)	combination Emax [1]	combination Emax [2]	combination Emax [3]	combination Emax [4]	combination Emax [5]	combination Emax [6]	combination Emax [7]	combination Emax [8]	combination Emax [9]	combination Emax [10]	combination Emax [11]	combination Emax [12]	combination Emax [13]	combination Emax [14]	combination Emax [15]	combination Emax [16]	combination Emax [17]	combination Emax [18]	combination Emax [19]	combination Emax [20]
NC1(C(=O)N[C@@H](CCO)c2ccc(Cl)cc2)CCN(c2ncnc3[nH]ccc23)CC1 [Capivasertib] + CCN(CCO)CCCOc1ccc2c(Nc3cc(CC(=O)Nc4cccc(F)c4)[nH]n3)ncnc2c1 [AZD2811] (first compound max 10 µM, 7x7, partner max 1 µM)	1	0.932	0.449	0.549	0.501	0.267	0.422	0.68	0.436	0.994	0.358	0.859	0.199	0.408	0.322	0.389	0.53	0.253	0.501	0.542
CN(CCO)CC[C@H](CSc1ccccc1)Nc1ccc(S(=O)(=O)NC(=O)c2ccc(N3CCC([C@@H](O)c4ccccc4-c4ccc(Cl)cc4)CC3)cc2)cc1S(=O)(=O)C(F)(F)F [AZD4320] + C1CN(CCC1(C(=O)N[C@@H](CCO)C2=CC=C(C=C2)Cl)N)C3=NC=NC4=C3C=CN4 [Capivasertib] (first compound max 1 µM, 7x7, partner max 3 µM)	1	1	0.141	0.388	0.249	0.356	0.564	0.229	0.289	0.97	0.124	0.192	1	0.229	0.0723	0.168	0.552	0.0769	0.21	0.329
CC(=O)c1c(C)c2cnc(Nc3ccc(N4CCNCC4)cn3)nc2n(C2CCCC2)c1=O [Palbociclib] + Cc1c2c(nn1C)CSCc1cc(n(C)n1)CSc1cc(c3ccccc3c1)OCCCc1c(C(=O)O)n(C)c3c-2c(Cl)ccc13 [AZD5991] (first compound max 10 µM, 7x7, partner max 1 µM)	0.732	0.388	0.435	0.287	0.21	0.14	0.244	0.897	0.167	0.5	0.219	1	0.693	0.404	0.245	0.173	0.316	0.265	0.229	0.462
Cn1cnc2c(F)c(Nc3ccc(Br)cc3Cl)c(C(=O)NOCCO)cc21 [Selumetinib] + CC(C)n1c(=O)n(C)c2cnc3cc(F)c(-c4ccc(OCCCN5CCCCC5)nc4)cc3c21 [AZD1390] (first compound max 10 µM, 7x7, partner max 0.3 µM)	0.108	0.136	0.409	0.0966	0.126	0.13	0.0668	0.22	0.191	0.0956	0.115	0.237	0.434	0.11	0.293	0.109	0.209	0.436	0.188	0.382
CN(CCO)CC[C@H](CSc1ccccc1)Nc1ccc(S(=O)(=O)NC(=O)c2ccc(N3CCC([C@@H](O)c4ccccc4-c4ccc(Cl)cc4)CC3)cc2)cc1S(=O)(=O)C(F)(F)F [AZD4320] + C=CCn1c(=O)c2cnc(Nc3ccc(N4CCN(C)CC4)cc3)nc2n1-c1cccc(C(C)(C)O)n1 [AZD1775] (first compound max 1 µM, partner max 1 µM)	1	1	0.615	0.273	0.99	0.34	1	1	0.585	0.773	0.182	1	1	0.379	0.395	0.689	0.934	0.37	0.241	0.552
CC1(C)CCC(CN2CCN(c3ccc(C(=O)NS(=O)(=O)c4ccc(NCC5CCOCC5)c([N+](=O)[O-])c4)c(Oc4cnc5[nH]ccc5c4)c3)CC2)=C(c2ccc(Cl)cc2)C1 [Venetoclax] + C1CN(CCC1(C(=O)N[C@@H](CCO)C2=CC=C(C=C2)Cl)N)C3=NC=NC4=C3C=CN4 [Capivasertib] (first compound max 1 µM, 7x7, partner max 3 µM)	0.957	0.317	0.401	0.37	0.21	0.192	0.155	0.998	0.329	0.916	0.174	0.295	1	0.281	0.0995	0.189	0.333	0.146	0.264	0.467
COc1nnc2ccc(N3CCC(c4ccc(OCCN5CCN(C)C(=O)[C@H]5C)cc4)CC3)nn12 [AZD5153] + Cn1cnc2c(F)c(Nc3ccc(Br)cc3Cl)c(C(=O)NOCCO)cc21 [Selumetinib] (first compound max 1 µM, 7x7, partner max 10 µM)	0.638	0.948	0.743	0.356	0.598	0.35	0.658	0.645	0.563	0.728	0.887	0.923	0.583	0.544	0.814	0.337	0.781	0.819	0.619	0.691
NC1(C(=O)N[C@@H](CCO)c2ccc(Cl)cc2)CCN(c2ncnc3[nH]ccc23)CC1 [Capivasertib] + CC(=O)c1c(C)c2cnc(Nc3ccc(N4CCNCC4)cn3)nc2n(C2CCCC2)c1=O [Palbociclib] (first compound max 10 µM, 7x7, partner max 10 µM)	0.798	0.452	0.568	0.493	0.397	0.227	0.412	0.522	0.295	0.945	0.396	0.892	0.257	0.504	0.305	0.317	0.435	0.412	0.436	0.638
CN(CCO)CC[C@H](CSc1ccccc1)Nc1ccc(S(=O)(=O)NC(=O)c2ccc(N3CCC([C@@H](O)c4ccccc4-c4ccc(Cl)cc4)CC3)cc2)cc1S(=O)(=O)C(F)(F)F [AZD4320] + CN(C)CCCOc1ccc(-c2ccc3ncc4c(c3c2)n(C2CCOCC2)c(=O)n4C)cn1 [AZD0156] (first compound max 1 µM, 7x7, partner max 1 µM)	1	1	0.0786	0.0842	0.156	0.263	0.655	0.597	0.242	0.335	0.117	0.357	1	0.0916	0.127	0.127	0.407	0.174	0.0707	0.157
NC1(C(=O)N[C@@H](CCO)c2ccc(Cl)cc2)CCN(c2ncnc3[nH]ccc23)CC1 [Capivasertib] + CC(C)n1c(=O)n(C)c2cnc3cc(F)c(-c4ccc(OCCCN5CCCCC5)nc4)cc3c21 [AZD1390] (first compound max 10 µM, 7x7, partner max 0.3 µM)	0.457	0.267	0.387	0.488	0.33	0.17	0.277	0.256	0.258	0.956	0.288	0.44	0.237	0.41	0.128	0.321	0.224	0.21	0.365	0.467
CN(CCO)CC[C@H](CSc1ccccc1)Nc1ccc(S(=O)(=O)NC(=O)c2ccc(N3CCC([C@@H](O)c4ccccc4-c4ccc(Cl)cc4)CC3)cc2)cc1S(=O)(=O)C(F)(F)F [AZD4320] + Cn1cnc2c(F)c(Nc3ccc(Br)cc3Cl)c(C(=O)NOCCO)cc21 [Selumetinib] (first compound max 1 µM, 7x7, partner max 3 µM)	0.993	1	0.43	0.396	0.817	0.438	0.823	0.737	0.367	0.414	0.245	0.858	1	0.368	0.544	0.405	0.993	0.451	0.294	0.401
COc1cccc(OCCCN)c1-c1cc(Nc2cnc(C#N)cn2)n[nH]1 [Prexasertib] + CCc1c2c(nc3ccc(O)cc13)-c1cc3c(c(=O)n1C2)COC(=O)[C@]3(O)CC [SN-38] (first compound max 1 µM, 7x7, partner max 0.3 µM)	1	0.833	0.921	0.83	0.999	0.8	0.878	1	0.86	0.766	0.549	1	0.627	0.994	0.938	0.934	1	0.75	0.799	0.856
